Measured values: patent publication US11739098B2 (BRISTOL-MYERS SQUIBB COMPANY, priority 2017, dated 2023)

Key:
Type in all cases: cell-based
[1] = target: T1, human TLR8 (Homo sapiens, UniProt Q9NR97); assay: TLR8 inhibition reporter assay (HEK-Blue cells, SEAP reporter, R848 stimulation); settings: HEK-Blue cells overexpressing human TLR8, SEAP reporter, R848 15.9 μM
T1 construct: host or cells: HEK-Blue cells (HEK293-derived reporter line)
T1 sequence (Q9NR97 27-1041): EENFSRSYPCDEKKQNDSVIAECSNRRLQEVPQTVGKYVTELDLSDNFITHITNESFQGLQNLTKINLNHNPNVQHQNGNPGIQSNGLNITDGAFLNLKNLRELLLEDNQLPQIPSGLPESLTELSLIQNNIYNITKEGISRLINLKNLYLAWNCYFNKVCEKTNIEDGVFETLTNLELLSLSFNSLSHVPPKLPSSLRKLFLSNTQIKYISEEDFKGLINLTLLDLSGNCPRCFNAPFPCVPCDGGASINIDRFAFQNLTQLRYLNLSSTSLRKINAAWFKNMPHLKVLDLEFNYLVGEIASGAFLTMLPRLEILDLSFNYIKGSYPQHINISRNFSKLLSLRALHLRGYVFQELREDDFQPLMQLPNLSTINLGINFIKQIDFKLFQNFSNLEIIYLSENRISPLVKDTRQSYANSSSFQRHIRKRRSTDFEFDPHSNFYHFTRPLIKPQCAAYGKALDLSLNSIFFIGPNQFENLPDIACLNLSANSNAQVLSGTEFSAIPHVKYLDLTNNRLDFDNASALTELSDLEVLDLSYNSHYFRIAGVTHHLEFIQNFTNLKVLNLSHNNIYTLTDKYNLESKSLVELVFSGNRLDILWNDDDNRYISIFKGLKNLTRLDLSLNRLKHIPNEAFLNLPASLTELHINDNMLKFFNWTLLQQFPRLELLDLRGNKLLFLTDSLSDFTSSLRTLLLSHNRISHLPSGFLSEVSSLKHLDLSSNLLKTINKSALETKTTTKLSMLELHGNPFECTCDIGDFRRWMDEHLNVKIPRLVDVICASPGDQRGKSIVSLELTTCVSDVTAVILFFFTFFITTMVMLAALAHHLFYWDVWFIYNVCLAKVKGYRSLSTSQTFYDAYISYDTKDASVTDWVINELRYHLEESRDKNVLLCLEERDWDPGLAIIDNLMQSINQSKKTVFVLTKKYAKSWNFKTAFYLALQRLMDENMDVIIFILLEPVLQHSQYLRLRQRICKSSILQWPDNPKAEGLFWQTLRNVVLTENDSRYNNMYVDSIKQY
Procedure, shortened: (§1)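 Cells seeded per well (15000 TLR7, 20,000 TLR8, 25,000 TLR9); compound added over 0.05 nM–50 μM for 30 min at room temperature; agonist added (TLR7 gardiquimod 7.5 μM, TLR8 R848 15.9 μM, TLR9 ODN2006 5 nM); 22 h at 37 °C; SEAP measured; percent inhibition calculated.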

[2] = target: T2, human TLR9 (Homo sapiens, UniProt Q9NR96); assay: TLR9 inhibition reporter assay (HEK-Blue cells, SEAP reporter, ODN2006 stimulation); settings: HEK-Blue cells overexpressing human TLR9, SEAP reporter, ODN2006 5 nM
T2 construct: host or cells: HEK-Blue cells (HEK293-derived reporter line)
T2 sequence (Q9NR96 26-1032): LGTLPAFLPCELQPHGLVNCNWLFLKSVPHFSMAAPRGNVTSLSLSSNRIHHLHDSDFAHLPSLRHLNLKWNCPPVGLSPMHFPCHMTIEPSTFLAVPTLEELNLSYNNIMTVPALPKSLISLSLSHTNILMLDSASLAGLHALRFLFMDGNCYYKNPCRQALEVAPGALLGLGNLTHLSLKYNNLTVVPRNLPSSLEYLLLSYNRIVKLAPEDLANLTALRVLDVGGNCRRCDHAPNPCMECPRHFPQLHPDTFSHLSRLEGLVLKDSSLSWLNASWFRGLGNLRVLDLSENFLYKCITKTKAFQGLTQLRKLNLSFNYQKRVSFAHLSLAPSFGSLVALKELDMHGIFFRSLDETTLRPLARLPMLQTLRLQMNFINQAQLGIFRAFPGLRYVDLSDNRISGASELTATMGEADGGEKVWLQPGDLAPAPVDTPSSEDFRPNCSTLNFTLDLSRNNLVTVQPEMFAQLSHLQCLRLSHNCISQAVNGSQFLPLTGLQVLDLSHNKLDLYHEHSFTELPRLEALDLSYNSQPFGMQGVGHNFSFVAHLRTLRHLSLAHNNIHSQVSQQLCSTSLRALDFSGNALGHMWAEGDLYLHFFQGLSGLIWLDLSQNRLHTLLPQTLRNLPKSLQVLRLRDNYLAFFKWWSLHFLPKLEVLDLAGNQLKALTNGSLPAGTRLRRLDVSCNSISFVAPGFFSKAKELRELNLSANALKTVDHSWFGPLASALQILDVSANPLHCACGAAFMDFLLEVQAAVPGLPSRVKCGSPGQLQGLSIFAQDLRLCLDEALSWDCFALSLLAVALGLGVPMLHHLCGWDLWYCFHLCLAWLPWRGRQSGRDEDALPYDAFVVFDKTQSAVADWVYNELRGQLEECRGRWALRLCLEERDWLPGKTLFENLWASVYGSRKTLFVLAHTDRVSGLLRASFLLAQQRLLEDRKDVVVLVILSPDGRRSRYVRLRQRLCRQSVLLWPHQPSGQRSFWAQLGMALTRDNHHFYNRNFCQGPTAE
Procedure, shortened: as §1

[3] = target: T3, human TLR7 (Homo sapiens, UniProt Q9NYK1); assay: TLR7 inhibition reporter assay (HEK-Blue cells, SEAP reporter, gardiquimod stimulation); settings: HEK-Blue cells overexpressing human TLR7, SEAP reporter, gardiquimod 7.5 μM
T3 construct: host or cells: HEK-Blue cells (HEK293-derived reporter line)
T3 sequence (Q9NYK1 27-1049): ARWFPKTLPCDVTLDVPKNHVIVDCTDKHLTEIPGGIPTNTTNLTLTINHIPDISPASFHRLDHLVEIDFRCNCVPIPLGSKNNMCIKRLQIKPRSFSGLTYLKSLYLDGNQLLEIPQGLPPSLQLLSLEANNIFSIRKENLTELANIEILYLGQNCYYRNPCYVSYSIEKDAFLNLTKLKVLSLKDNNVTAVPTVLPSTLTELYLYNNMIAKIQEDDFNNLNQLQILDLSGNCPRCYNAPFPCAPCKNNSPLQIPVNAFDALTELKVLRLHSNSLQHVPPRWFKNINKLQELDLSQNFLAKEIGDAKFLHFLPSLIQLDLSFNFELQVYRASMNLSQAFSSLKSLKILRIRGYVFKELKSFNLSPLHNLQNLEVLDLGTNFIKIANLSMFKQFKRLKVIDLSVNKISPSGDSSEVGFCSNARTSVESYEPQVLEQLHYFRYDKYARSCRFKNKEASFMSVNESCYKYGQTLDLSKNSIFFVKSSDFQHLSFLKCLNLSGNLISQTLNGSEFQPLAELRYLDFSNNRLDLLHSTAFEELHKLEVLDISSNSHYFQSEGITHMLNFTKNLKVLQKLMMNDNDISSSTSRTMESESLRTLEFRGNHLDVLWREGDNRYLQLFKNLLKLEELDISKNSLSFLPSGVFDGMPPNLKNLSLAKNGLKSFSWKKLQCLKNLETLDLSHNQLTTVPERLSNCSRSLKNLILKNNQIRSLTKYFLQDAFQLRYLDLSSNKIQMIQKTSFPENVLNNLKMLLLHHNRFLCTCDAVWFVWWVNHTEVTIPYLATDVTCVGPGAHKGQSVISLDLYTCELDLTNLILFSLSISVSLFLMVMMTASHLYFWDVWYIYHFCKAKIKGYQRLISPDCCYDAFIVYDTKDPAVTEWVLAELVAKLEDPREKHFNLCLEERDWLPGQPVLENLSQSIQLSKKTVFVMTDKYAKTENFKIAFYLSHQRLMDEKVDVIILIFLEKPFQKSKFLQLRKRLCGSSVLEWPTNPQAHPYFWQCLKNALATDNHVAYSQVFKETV
Procedure, shortened: as §1

IC50 [1]	IC50 [2]	IC50 [3]	SMILES
100 to 1000 nM	> 50000 nM	100 to 1000 nM	CC(=O)N1CCC[C@H]1C(=O)N1CCC(c2ccc3[nH]c(-c4ccnc5[nH]ncc45)c(C(C)C)c3c2)CC1 [Example 566, (S)-1-(2-(4-(3-isopropyl-2-(1H-pyrazolo[3,4-b]pyridin-4-yl)-1H-indol-5-yl)piperidine-1-carbonyl)pyrrolidin-1-yl)ethan-1-one]
< 100 nM	1000 to 50000 nM	< 100 nM	Cc1cc(-c2[nH]c3ccc(C4CCN(CC(=O)N(C)C)CC4)cc3c2C(C)C)c(C)n2nnnc12 [Example 310, 2-(4-(2-(5,8-dimethyltetrazolo[1,5-a]pyridin-6-yl)-3-isopropyl-1H-indol-5-yl)piperidin-1-yl)-N,N-dimethylacetamide]
< 100 nM	1000 to 50000 nM	< 100 nM	Cc1cc(-c2[nH]c3ccc(C4CCN(C(=O)CCN(C)C5CC5)CC4)cc3c2C(C)C)cn2nnnc12 [Example 623, 3-(cyclopropyl(methyl)amino)-1-(4-(3-isopropyl-2-(8-methyltetrazolo[1,5-a]pyridin-6-yl)-1H-indol-5-yl)piperidin-1-yl)propan-1-one]
< 100 nM	100 to 1000 nM	< 100 nM	CNC(=O)CN1CCC(c2ccc3[nH]c(-c4cc(C)c5nccn5c4)c(C(C)C)c3c2)CC1 [Example 397, 2-(4-(3-isopropyl-2-(8-methylimidazo[1,2-a]pyridin-6-yl)-1H-indol-5-yl)piperidin-1-yl)-N-methylacetamide]
< 100 nM	1000 to 50000 nM	< 100 nM	Cc1cc(-c2[nH]c3ccc(C4CCN(Cc5ccn(C)n5)CC4)cc3c2C(C)C)cn2nnnc12 [Example 884, 6-(3-isopropyl-5-(1-((1-methyl-1H-pyrazol-3-yl)methyl)piperidin-4-yl)-1H-indol-2-yl)-8-methyltetrazolo[1,5-a]pyridine]
< 100 nM	1000 to 50000 nM	< 100 nM	CCCN1CCC(c2ccc3[nH]c(-c4cc(OC)c5ncnn5n4)c(C(C)C)c3c2)CC1 [Example 952, 6-(3-isopropyl-5-(1-propylpiperidin-4-yl)-1H-indol-2-yl)-8-methoxy-[1,2,4]triazolo[1,5-b]pyridazine]
100 to 1000 nM	1000 to 50000 nM	100 to 1000 nM	CC(C)c1c(-c2ccn3nccc3n2)[nH]c2ccc(C3CCN(CC(=O)N(C)C)CC3)cc12 [Example 425, 2-(4-(3-isopropyl-2-(pyrazolo[1,5-a]pyrimidin-5-yl)-1H-indol-5-yl)piperidin-1-yl)-N,N-dimethylacetamide]
100 to 1000 nM	100 to 1000 nM	< 100 nM	CNC(=O)CN1CCC(c2ccc3[nH]c(-c4cc(C(C)(C)O)c5nccn5c4)c(C(C)C)c3c2)CC1 [Example 342, 2-(4-(2-(8-(2-hydroxypropan-2-yl)imidazo[1,2-a]pyridin-6-yl)-3-isopropyl-1H-indol-5-yl)piperidin-1-yl)-N-methylacetamide]
< 100 nM	1000 to 50000 nM	< 100 nM	Cc1cc(-c2[nH]c3ccc(C4CCN(C(=O)CN5CCCCC5)CC4)cc3c2C(C)C)cn2nnnc12 [Example 472, 1-(4-(3-isopropyl-2-(8-methyltetrazolo[1,5-a]pyridin-6-yl)-1H-indol-5-yl)piperidin-1-yl)-2-(piperidin-1-yl)ethan-1-one]
< 100 nM	100 to 1000 nM	< 100 nM	COc1cc(-c2[nH]c3ccc(C4CCN(C(=O)CN(C)C)CC4)cc3c2C(C)C)cn2ccnc12 [Example 558, 2-(dimethylamino)-1-(4-(3-isopropyl-2-(8-methoxyimidazo[1,2-a]pyridin-6-yl)-1H-indol-5-yl)piperidin-1-yl) ethan-1-one]
< 100 nM	100 to 1000 nM	< 100 nM	Cc1cc(-c2[nH]c3ccc(C4CCNCC4)cc3c2C(C)C)cc2ncc(O)nc12 [Example 87, 6-(3-isopropyl-5-(piperidin-4-yl)-1H-indol-2-yl)-8-methylquinoxalin-2-ol]
